US7777035B2, “Azaindazole compounds and methods of use” (Chemocentryx, Inc., priority 2005, dated 2010)
pIC50: −log10 of the molar value.

What follows are compounds tested against T1, CCR1 (Homo sapiens, UniProt P32246) (assay: CCR1 chemotaxis assay or binding assay (activity given for either)). Conditions: either the chemotaxis assay or binding assay; CCR1 expressing cells (THP-1 or human monocytes); read-out: Activity (IC50 class).
T1 construct: host or cells: THP-1 cells or monocytes isolated from human buffy coats
T1 sequence (P32246 1-355): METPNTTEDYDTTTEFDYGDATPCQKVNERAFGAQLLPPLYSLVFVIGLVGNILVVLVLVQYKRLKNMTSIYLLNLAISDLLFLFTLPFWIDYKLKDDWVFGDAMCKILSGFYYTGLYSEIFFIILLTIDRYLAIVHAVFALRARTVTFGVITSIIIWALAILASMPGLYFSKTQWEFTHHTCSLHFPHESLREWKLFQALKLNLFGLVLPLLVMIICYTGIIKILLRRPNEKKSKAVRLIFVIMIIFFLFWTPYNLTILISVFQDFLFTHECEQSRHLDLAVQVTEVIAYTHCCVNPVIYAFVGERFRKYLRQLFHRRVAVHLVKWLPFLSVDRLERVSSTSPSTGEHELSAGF
Procedure: Cells were grown under 5% CO2/95% air, 100% humidity at 37° C. and subcultured twice weekly at 1:5 (cells were cultured at a density range of 2×10^5 to 2×10^6 cells/mL) and harvested at 1×10^6 cells/mL. THP-1 cells express CCR1 and can be used in CCR1 binding and functional assays.
Monocytes were isolated from human buffy coats using the Miltenyi bead isolation system (Miltenyi, Auburn, Calif.). Briefly, following a Ficoll gradient separation to isolate peripheral blood mononuclear cells, cells were washed with PBS and the red blood cells lysed using standard procedures. Remaining cells were labeled with anti-CD14 antibodies coupled to magnetic beads (Miltenyi Biotech, Auburn, Calif.). Labeled cells were passed through AutoMACS (Miltenyi, Auburn, Calif.) and positive fraction collected. Monocytes express CCR1 and can be used in CCR1 binding and functional assays.
CCR1 expressing cells were centrifuged and resuspended in assay buffer (20 Mm HEPES pH 7.1, 140 Mm NaCl, 1 Mm CaCl2, 5 Mm MgCl2, and with 0.2% bovine serum albumin) to a concentration of 5×10^6 cells/mL for THP-1 cells and 5×10^5 for monocytes. Binding assays were set up as follows. […] Reactions were aspirated onto GF/B glass filters pre-soaked in 0.3% polyethyleneimine (PEI) solution, on a vacuum cell harvester (Packard Instruments; Meriden, Conn.). Scintillation fluid (40 μl; Microscint 20, Packard Instruments) was added to each well, the plates were sealed and radioactivity measured in a Topcount scintillation counter (Packard Instruments). Control wells containing either diluent only (for total counts) or excess MIP-1α or MIP-1β (1 μg/mL, for non-specific binding) were used to calculate the percent of total inhibition for compound. The computer program Prism from GraphPad, Inc. (San Diego, Calif.) was used to calculate IC50 values.
Chemotaxis assays were performed using 5 ┌ m pore polycarbonate, polyvinylpyrrolidone-coated filters in 96-well chemotaxis chambers (Neuroprobe; Gaithersburg, Md.) using chemotaxis buffer (Hank's balanced salt solution (HBSS) and 1% FBS). CCR1 chemokine ligands (i.e., MIP-1α, CCL15/Leukotactin; R&D Systems; Minneapolis, Minn.) are use to evaluate compound mediated inhibition of CCR1 Mediated migration. Other chemokines (i.e., SDF-1α; R&D Systems; Minneapolis, Minn.) are used as specificity controls. […] The chambers were incubated 1-2 hours at 37° C., and the number of cells in the lower chamber quantified either by direct cell counts in five high powered fields per well or by the CyQuant assay (Molecular Probes), a fluorescent dye method that measures nucleic acid content and microscopic observation.
THP-1 cells and monocytes lack other chemokine receptors that bind the same set of chemokine ligands as CCR1 (i.e., MIP-1α, MPIF-1, Leukotactin, etc.). Equal numbers of cells were added to each well in the plate. The cells were then incubated with radiolabeled MIP-1α. Unbound ligand was removed by washing the cells, and bound ligand was determined by quantifying radioactive counts. […] Percent inhibition was determined by the equation: […]
In the assay, the amount of compound was varied; while cell number and ligand concentration were held constant.
One of the primary functions of chemokines is their ability to mediate the migration of chemokine receptor-expressing cells, such as white blood cells. […] THP-1 Myelomonocytic leukemia cells, which resemble monocytes, as wells as freshly isolated monocytes, were used as targets for chemoattraction by CCR1 chemokine ligands (i.e., MIP-1α, CCL15/leukotactin). […] In this assay, the amount of compound was varied; while cell number and chemokine agonist concentrations were held constant. After the chemotaxis chambers were incubated 1-2 hours at 37° C., the responding cells in the lower chamber were quantified by labeling with the CyQuant assay (Molecular Probes), a fluorescent dye method that measures nucleic acid content, and by measuring with a Spectrafluor Plus (Tecan).

| Compound | pIC50 |
| --- | --- |
| COc1cc(N2CCN(C(=O)Cn3nc(-c4nccs4)c4cccnc43)CC2)ccc1Cl [Compound 1.011] | 4.90 to 5.60 |
| COc1cc(N2CCN(C(=O)Cn3nc(C)c4cccnc43)CC2)ccc1Cl [Compound 1.014] | 5.60 to 6.00 |
| COc1cc(N2CCN(C(=O)Cn3nc(F)c4cccnc43)CC2)ccc1Cl [Compound 1.016] | > 6.00 |
| COc1cc(N2CCN(C(=O)Cn3nc(-c4ncco4)c4cccnc43)[C@@H](C)C2)c(F)cc1Cl [Compound 1.017] | > 6.00 |
| COc1cc(N2CCN(C(=O)Cn3cc4ccncc4n3)CC2)ccc1Cl [Compound 1.018] | > 6.00 |
| COc1cc(N2CCN(C(=O)Cn3ncc4ccncc43)CC2)ccc1Cl [Compound 1.019] | > 6.00 |
| COc1cc(N2CCN(C(=O)Cn3nc(-c4nccs4)c4cccnc43)[C@@H](C)C2)c(F)cc1Cl [Compound 1.021] | > 6.00 |
| COc1cc(N2CCN(C(=O)Cn3nc(-c4ccccn4)c4cccnc43)[C@@H](C)C2)c(F)cc1Cl [Compound 1.022] | > 6.00 |
| COc1cc(N2CCN(C(=O)Cn3nc(C)c4cccnc43)CC2)ccc1Cl [Compound 1.023] | > 6.00 |
| COc1cc(N2CCN(C(=O)Cn3nc(-c4nccs4)c4cccnc43)CC2)ccc1Cl [Compound 1.025] | > 6.00 |
| COc1cc(N2CCN(C(=O)Cn3nc(C#N)c4cccnc43)CC2)ccc1Cl [Compound 1.026] | > 6.00 |
| COc1cc(N2CCN(C(=O)Cn3cc4ncccc4n3)CC2)ccc1Cl [Compound 1.027] | > 6.00 |
| COc1cc(N2CCN(C(=O)Cn3ncc4ncccc43)CC2)ccc1Cl [Compound 1.028] | > 6.00 |
| COc1cc(N2CCN(C(=O)Cn3nc4ncccc4c3Cl)CC2)ccc1Cl [Compound 1.029] | > 6.00 |
| COc1cc(N2CCN(C(=O)Cn3ncc4ccc[n+]([O-])c43)CC2)ccc1Cl [Compound 1.030] | > 6.00 |
| COc1cc(N2CCN(C(=O)Cn3ncc4ccc(C)nc43)CC2)ccc1Cl [Compound 1.031] | > 6.00 |
| COc1cc(N2CCN(C(=O)Cn3cc4ccc(C)nc4n3)CC2)ccc1Cl [Compound 1.032] | > 6.00 |
| COc1cc(N2CCN(C(=O)Cn3nc(N4CCOCC4)c4cccnc43)CC2)ccc1Cl [Compound 1.033] | > 6.00 |
| COc1cc(N2CCN(C(=O)Cn3ncc4ccncc43)[C@@H](C)C2)c(F)cc1Cl [Compound 1.034] | > 6.00 |

More lines, now with the values ahead:

| pIC50 | Compound |
| --- | --- |
| > 6.00 | COc1cc(N2CCN(C(=O)Cn3ncc4cccnc43)[C@@H](C)C2)c(F)cc1Cl [Compound 1.001] |
| > 6.00 | COc1cc(N2CCN(C(=O)Cn3cc4cccnc4n3)[C@@H](C)C2)c(F)cc1Cl [Compound 1.002] |
| > 6.00 | COc1cc(N2CCN(C(=O)Cn3nc(N)c4cccnc43)[C@@H](C)C2)c(F)cc1Cl [Compound 1.003] |
| > 6.00 | COc1cc(N2CCN(C(=O)Cn3nc(Cl)c4cccnc43)CC2)ccc1Cl [Compound 1.004] |
| > 6.00 | COc1cc(N2CCN(C(=O)Cn3nc(C)c4cccnc43)[C@@H](C)C2)c(F)cc1Cl [Compound 1.005] |
| > 6.00 | COc1cc(N2CCN(C(=O)Cn3cc4cccnc4n3)CC2)ccc1Cl [Compound 1.006] |
| > 6.00 | COc1cc(N2CCN(C(=O)Cn3ncc4cccnc43)CC2)ccc1Cl [Compound 1.007] |
| > 6.00 | COc1cc(N2CCN(C(=O)Cn3ncc4cnccc43)[C@@H](C)C2)c(F)cc1Cl [Compound 1.008] |
| > 6.00 | COc1cc(N2CCN(C(=O)Cn3cc4ccncc4n3)[C@@H](C)C2)c(F)cc1Cl [Compound 1.009] |
| > 6.00 | COc1cc(N2CCN(C(=O)Cn3nc(-c4ccccn4)c4cccnc43)CC2)ccc1Cl [Compound 1.010] |
| > 6.00 | COc1cc(N2CCN(C(=O)Cn3ncc4cccnc43)CC2)c(F)cc1Cl [Compound 1.012] |
| > 6.00 | COc1cc(N2CCN(C(=O)Cn3cc4cccnc4n3)CC2)c(F)cc1Cl [Compound 1.013] |
| > 6.00 | COc1cc(N2CCN(C(=O)Cn3nc(-c4ncco4)c4cccnc43)CC2)ccc1Cl [Compound 1.015] |
